Where two headings read alike, the source gives them in different places.
How the values were obtained:
[1] = Repeat-dose dose-escalation study of controlled release anagrelide: pharmacokinetics; format: in vivo, human; conditions: for half-life / AUC0-inf / AUC / Cmax / Tmax / AUC0-t: human, plasma, oral; for AUC0-inf / AUC / Cmax / AUC0-t: dose-normalized to 0.2 mg; for AUC0-inf: read-out: AUC0-inf; for AUC: read-out: AUC0-τ; for Cmax: read-out: Cmax; for Tmax: median; for AUC0-t: read-out: AUC0-t
Description: A placebo-controlled, double-blind repeat-dose, dose-escalation, sequential cohort study was conducted to evaluate the pharmacokinetics and pharmacodynamics of a controlled release composition of anagrelide as described herein in healthy subjects. An objective of the study was to explore the dose-response relationship for effects on platelet counts of a low dose range of a composition of anagrelide as described herein in healthy subjects. Other objectives of the study included determining the time course of effect and recovery of a range of doses of the composition including anagrelide on platelet count, determining the effects of a range of doses of the anagrelide compositions on platelet aggregation (collagen and ADP as agonists), determining the single and repeat dose pharmacokinetics of the anagrelide composition, and exploring the safety and tolerability of the compositions given as single doses and repeatedly for up to 21 days.
Eligible subjects were treated as follows: • Subjects were admitted to the unit on day 1 in the morning after an overnight fast and remain in the unit until 4 hours after morning dosing on day 5. • Subjects received a single dose of controlled release composition including anagrelide (or matching placebo) on day 1 in the morning. • Subjects commenced repeat dosing twice a day with the controlled release anagrelide composition on the morning of day 3 and remained in the unit until 4 hours after morning dose on day 5. • Subjects continued repeat twice a day dosing with the controlled release anagrelide composition as outpatients. Dosing continued until the morning of day 23. • All morning doses were taken after an overnight fast of at least 8 hour. • All evening doses were taken at least 2 hour after food consumption. No food was to be consumed for at least 1 hour after any dose (4 hours for the morning doses on day 1 and day 23). • On day 6-day 21, blood was taken pre-dosing of the controlled release anagrelide composition for full blood count (FBC) and platelet count (every day), trough PK (day 7, day 10, day 13, day 16 and day 19) and clinical chemistry (day 13). • Subjects were readmitted to the unit on the morning of day 22 and remained there until day 25 so that the PK of the final dose of the controlled release composition containing anagrelide on day 23 could be followed for 48 hours. • Subjects returned to the clinic daily from day 26 to day 31 for FBC and platelet counts. • Subjects returned for a follow up visit 14-16 days after the last dose of the controlled release composition containing anagrelide. Study Population:
A controlled release composition of anagrelide as described above in Table 4 of Example 1 (composition 2 fast release with seal coat) was used in unit doses of 100 μg and 300 μg, administered orally.
In this protocol, 4 cohorts of 200 μg, 300 μg, 400 μg and 600 μg doses of the controlled release composition including anagrelide administered twice daily were studied.
Platelet count, collagen-induced platelet aggregation, ADP induced platelet aggregation, template bleeding time, AUC0-t, AUC0-∞, Cmax, Cmin, t1/2, λZ and tmax were determined.
The starting dose of 200 μg (as a single dose on day 1 and then twice a day for 21 days) was chosen as a dose unlikely to cause any clinically significant reduction in platelet counts in healthy subjects. This starting dose was chosen because identification of the lowest dose of the controlled release composition containing anagrelide producing any effect on platelet counts was of interest. In each subsequent cohort the dose was increased by […] twice a day with the objective of identifying the dose range that lowers platelet counts by 30-50%. With daily monitoring of platelet counts, this escalation was determined to allow identification of the effective dose range of the controlled release composition of anagrelide without placing the subjects at significant clinical risk.

[2] = test system: cultured megakaryocytes; assay: In vitro studies of cultured megakaryocytes (TPO inhibition effects, megakaryocytopoiesis); format: cell-based; conditions: at 310.55 g/mol
[3] = 38 volunteers, single 1 mg dose of immediate release anagrelide (Agrylin); cited from earlier work
[4] = patients with ET or other myeloproliferative diseases; cited from earlier work
[5] = test system: cAMP PDE; conditions: sonicated human platelets; read-out: IC50 for inhibition of cAMP PDE activity; cited from earlier work
[6] = test system: cGMP PDE; conditions: sonicated human platelets; read-out: IC50 for inhibition of cGMP PDE activity; cited from earlier work
[7] = test system: cultured megakaryocytes; conditions: cultured megakaryocytes; cited from earlier work
[8] = cited from earlier work
[9] = target: CYP1A2 (Homo sapiens, UniProt P05177); conditions: cited from earlier work
[10] = cited from earlier work; remark: listed apart in the source
[11] = test system: circulating platelets; conditions: patients with essential thrombocythemia, immediate release form 3 mg/day, after approximately 10 days; cited from earlier work
[12] = 0.2 mg, cohort 1 (0.2 mg), day 1
[13] = 0.2 mg, cohort 1 (0.2 mg), day 23
[14] = 0.3 mg, cohort 4 (0.3 mg), day 1
[15] = 0.3 mg, cohort 4 (0.3 mg), day 23
[16] = 0.4 mg, cohort 2 (0.4 mg), day 1
[17] = 0.4 mg, cohort 2 (0.4 mg), day 23
[18] = 0.6 mg, cohort 3 (0.6 mg), day 1
[19] = 14C labelled anagrelide in humans

Sequence of CYP1A2 (P05177 whole entry): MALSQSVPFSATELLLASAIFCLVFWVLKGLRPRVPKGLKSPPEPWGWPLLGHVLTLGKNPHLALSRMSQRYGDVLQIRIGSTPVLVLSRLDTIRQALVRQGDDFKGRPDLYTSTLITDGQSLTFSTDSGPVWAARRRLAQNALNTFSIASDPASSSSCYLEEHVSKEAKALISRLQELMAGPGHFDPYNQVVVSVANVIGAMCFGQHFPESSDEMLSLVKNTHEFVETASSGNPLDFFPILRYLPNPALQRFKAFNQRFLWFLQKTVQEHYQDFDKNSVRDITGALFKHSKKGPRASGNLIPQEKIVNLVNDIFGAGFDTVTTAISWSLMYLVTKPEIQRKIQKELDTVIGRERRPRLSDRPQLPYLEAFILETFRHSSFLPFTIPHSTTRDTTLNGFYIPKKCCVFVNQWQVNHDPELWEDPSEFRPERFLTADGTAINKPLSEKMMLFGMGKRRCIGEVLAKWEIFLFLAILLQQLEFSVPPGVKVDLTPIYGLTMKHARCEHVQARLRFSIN

## O=C1CN2Cc3c(ccc(Cl)c3Cl)N=C2N1 [anagrelide, 6,7-dichloro-1,5-dihydroimidazo-[2,1-b]quinazolin-2(3H)-one]
[1]; cohort 1 (0.2 mg), day 1
  Kel: 0.1908 h⁻¹
  AUC0-t: 1.72 ng·h/mL
[1]; cohort 1 (0.2 mg), day 23
  Kel: 0.0871 h⁻¹
[1]; cohort 2 (0.4 mg), day 1
  Kel: 0.0426 h⁻¹
  AUC0-t: 1.66 ng·h/mL
[1]; cohort 2 (0.4 mg), day 23
  Kel: 0.0567 h⁻¹
[1]; cohort 3 (0.6 mg), day 1
  Kel: 0.0490 h⁻¹
  AUC0-t: 2.26 ng·h/mL
[1]; cohort 4 (0.3 mg), day 1
  Kel: 0.1685 h⁻¹
  AUC0-t: 1.82 ng·h/mL
[1]; cohort 4 (0.3 mg), day 23
  Kel: 0.0321 h⁻¹
[1]; [12]
  half-life: 22.9 h
  AUC0-inf: 2.45 ng·h/mL
  AUC: 1.75 ng·h/mL
  Cmax: 0.334 ng/mL
  Tmax: 4 h
[1]; [13]
  half-life: 34.3 h
  AUC0-inf: 3.25 ng·h/mL
  AUC: 2 ng·h/mL
  Cmax: 0.354 ng/mL
  Tmax: 3 h
[1]; [14]
  half-life: 14.3 h
  AUC0-inf: 2.24 ng·h/mL
  AUC: 1.63 ng·h/mL
  Cmax: 0.284 ng/mL
  Tmax: 3.61 h
[1]; [15]
  half-life: 21.6 h
  AUC0-inf: 2.1 ng·h/mL
  AUC: 1.87 ng·h/mL
  Cmax: 0.224 ng/mL
  Tmax: 2 h
[1]; [16]
  half-life: 56.1 h
  AUC0-inf: 3.48 ng·h/mL
  AUC: 1.48 ng·h/mL
  Cmax: 0.234 ng/mL
  Tmax: 3.51 h
[1]; [17]
  half-life: 15.1 h
  AUC0-inf: 3.28 ng·h/mL
  AUC: 2.26 ng·h/mL
  Cmax: 0.331 ng/mL
  Tmax: 3.02 h
[1]; [18]
  half-life: 19.5 h
  AUC0-inf: 2.74 ng·h/mL
  AUC: 1.96 ng·h/mL
  Cmax: 0.304 ng/mL
  Tmax: 4 h
[2]
  Concentrations at which TPO inhibition effects are seen (molar equivalent): 0.032 to 0.16 µM
[3]
  AUC0-inf ± RSD (%): 11.1 ± 37.6 ng·h/mL
  Cmax ± RSD (%): 4.99 ± 74.4 ng/mL
  Tmax ± RSD (%): 1.3 ± 53.8 h
[4]
  Observed half-life: about 1.7 h
  Share of all drug-related products in the plasma: less than 20%
[5]
  IC50: 0.054 µM
[6]
  IC50: 34 µM
[7]
  Concentrations at which TPO inhibition effects are seen: 0.01 to 5 µg/mL
[8]; [19]
  Eliminated via the kidneys: > 70%
  Excreted in the feces: approximately 10%
[8]; commercially available instant release formulation
  Terminal half-life: 1.7 h
[8]; in vivo
  Drug-drug interactions with hydroxycarbamide or aspirin: No drug-drug interactions were identified
[8]; oral, marketed immediate release formulation
  Absorption in the gastrointestinal tract: about 70%
[9]
  Level of CYP1A2 inhibition relative to therapeutic exposure: about 900 fold
[10]
  Solubility in diethyl ether or n-heptane: insoluble
  Solubility in dimethylsulfoxide and N,N-dimethylformamide: sparingly soluble
  Solubility in water: very slightly soluble
[11]
  Decrease in the number of circulating platelets: 30-50%

Source: patent publication US9750698B2, “Controlled release compositions of agents that reduce circulating levels of platelets and methods therefor” (BioVascular, Inc., priority 2008, dated 2017)
